Experimental data as given in patent publication US20260258025A1, “INHIBITORS OF TDP-43 AND TAU AGGREGATION” (Aquinnah Pharmaceuticals, inc., priority 2023, published 2026).
Entries after “also recorded” stand apart in the source; their conditions may differ.

What was measured:
insoluble TDP-43 = assay: Cell fractionation and immunoblot of TDP-43 in MG-132 challenged human motor neurons; assay type: cell-based; details: 500 nM Compound 183 with MG-132 1 μM
Procedure: Cell culture and differentiation of iPS Cells into motor neurons. Pluripotent stem cells were grown with mTeSR Plus medium on tissue culture dishes coated with Matrigel, and maintained in 5% CO2 incubators at 37° C. Stem cells were passaged as small aggregates of cells after 1 mM EDTA treatment. […] was added to the cultures for 16-24 h after dissociation to prevent cell death. The iP11NA iPS cell line was acquired from ALSTEM. This cell line was generated from pre-made footprint-free human iPS cells with DOX inducible Ngn2 that has been stably integrated into the human AAVS1 “Safe Harbor” site, and provides a convenient means to differentiate human iPS cells into neurons rapidly and efficiently. Motor neuron differentiation was achieved using a modified 5-day strategy. […]
For analysis of TDP-43 cellular distribution, d14 motor neurons were lysed with Thermo Subcellular Protein Fractionation Kit for cultured cells and processed according to the manufacturer's instructions. […] Fluorescent secondary antibodies were used for band detection and the Kaleidoscope precision plus protein ladder for size estimation. iBright FL1500 imaging system and software were used to quantitate protein band signal. […]

TDP-43 splicing function = assay: qRT-PCR of TDP-43 sentinel transcripts (STMN2, ELAVL3, PFKP) in MG-132 challenged human motor neurons; assay type: cell-based
Procedure: Cell culture and differentiation of iPS Cells into motor neurons. Pluripotent stem cells were grown with mTeSR Plus medium on tissue culture dishes coated with Matrigel, and maintained in 5% CO2 incubators at 37° C. Stem cells were passaged as small aggregates of cells after 1 mM EDTA treatment. […] was added to the cultures for 16-24 h after dissociation to prevent cell death. The iP11NA iPS cell line was acquired from ALSTEM. This cell line was generated from pre-made footprint-free human iPS cells with DOX inducible Ngn2 that has been stably integrated into the human AAVS1 “Safe Harbor” site, and provides a convenient means to differentiate human iPS cells into neurons rapidly and efficiently. Motor neuron differentiation was achieved using a modified 5-day strategy.
This approach relies on neural induction through small molecule inhibition of SMAD signaling, accelerated neural differentiation through forced Ngn2 expression, and motor neuron patterning through the activation of retinoic acid and Sonic Hedgehog signaling pathways. In brief, pluripotent stem cells were dissociated to single cells using accutase and plated at a density of 80,000 cells per cm^2 on Matrigel-coated culture plates with mTeSR Plus medium supplemented with ROCK inhibitor (10 μM Y-27632, ATCC). When cells reached 50% confluency, medium was changed to differentiation medium BrainPhys medium supplemented with N2-A, SM1, […]. This time point was defined as day 0 (d0) of motor neuron differentiation. Treatment with small molecules was carried out as follows: 2 μg/mL Doxycyline, 10 μM SB431542, 100 nM LDN-193189, […] and 1 μM Smoothend agonist and 10 uM Edu. The full list of materials and their descriptions is included below in Table 5.
Total RNA was isolated from d14 motor neurons for qRT-PCR assays using TaqMan™ Fast Advanced Cells-to-CT™ Kit according to manufacturer's instructions. 7500 neurons per well of 96-well culture were routinely used for processing. qRT-PCR was then performed using multiplex assays from IDT using PrimeTime™ Gene Expression Master Mix (IDT) on a QuantStudio6Pro system. Quantitative levels for all genes assayed were normalized using GAPDH expression. […] Primers and probes used in this study are in Table 5.
To this end, we first examined whether proteasome inhibition, which triggers TDP-43 nuclear depletion, also leads to splicing defects associated with TDP-43 loss-of function. For comparison, we also treated human motor neurons with puromycin, which recruits TDP-43 to stress granules in the cytoplasm. We chose to analyze several transcripts that have relevant connections to ALS biology including STMN26,12, PFKP19, and ELAVL320,21. We used quantitative reverse transcription-polymerase chain reaction (qRT-PCR) to validate that in MG-132-treated motor neurons these transcripts were altered like in ALS patients.
Using this method, we next obtained RNA from independent motor neuron biological replicates after proteasome inhibition and Compound 183 treatment to determined by qRT-PCR the relative abundance of these transcripts. […] A dose-responsive effect was further tested for Compound 183 using qRT-PCR in this model. […] Collectively, the data support the notion that Compound 183 promotes TDP-43 nuclear function under proteotoxic stress.

[1] = Compound 183 500 nM with MG-132 1 μM, relative to MG-132 control
[2] = by 500 nM, MG-132 1 μM challenged motor neurons

Structure (SMILES): Cc1cc(-c2ccc(C3CCN(C(C)C)CC3)cc2)sc1C(=O)N1CC[C@H](N)C1 [Compound 183, (S)-(3-aminopyrrolidin-1-yl)(5-(4-(1-isopropylpiperidin-4-yl)phenyl)-3-methylthiophen-2-yl)methanone]
- TDP-43 level in the nuclear fraction (immunoblot) (insoluble TDP-43): the levels of TDP-43 in the nucleus were maintained; also recorded: restoring nuclear TDP-43 localization
- cryptic splicing events of STMN2, ELAVL3 and PFKP (qRT-PCR) (TDP-43 splicing function; [1]): nearly complete inhibition for all three cryptic splicing events
- splicing of the normal transcripts, TDP-43 splicing function (qRT-PCR) (TDP-43 splicing function; [1]): increased splicing of the normal transcripts; also recorded: restoring splicing function of TDP-43
- restoration of normal STMN2 and ELAVL3 levels (qRT-PCR, dose response) (TDP-43 splicing function; MG-132 1 μM challenged motor neurons): modest in its ability to restore normal STMN2 and ELAVL3 levels
- maintenance of TDP-43 splicing function, dose response (qRT-PCR) (TDP-43 splicing function; MG-132 1 μM challenged motor neurons, effective concentration range for most transcripts): restoring TDP-43 splicing function in dose dependent manner
- restoration of normal splicing of PFKP (qRT-PCR, dose response) (TDP-43 splicing function; [2]): fully restored normal splicing of PFKP
- suppression of cryptic splicing, all transcripts tested (qRT-PCR, dose response) (TDP-43 splicing function; [2]): strong suppression of cryptic splicing
